The values that follow come from PubChem BioAssay (NCI).

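Step 1: Grow cells in 96-well plates. Step 2: Expose to compound for 48 hours at 5 concentrations. Step 3: Interpolate endpoints linearly; if unreached, use highest concentration. Definition used: TGI = concentration required for complete inhibition of growth.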 Where a SMILES comes first, the peptide text is derived from it. The star is where a group is joined. OBn = c1ccc(CO*)cc1

Test systems include DU-145 prostate; OVCAR-3 ovarian; NCI-H522 lung; OVCAR-4 ovarian; SK-MEL-2 melanoma; HS 578T breast; KM12 colon; HOP-92 NSCLC; HCC-2998 colon; HCT-15 colon; A549 NSCLC; 786-0 renal; MDA-MB-435; RXF 393 renal; M14 melanoma; CCRF-CEM leukemia; NCI-H23 lung; SF-539 CNS; EKVX NSCLC; SNB-75 CNS.
Common to all, as to experiment: DTP human tumour cell line panel, 48 h

Regarding `COc1ccccc1N1C(=O)/C(=C\c2cc(OC)c(OC)c(OC)c2)S(=O)(=O)C1c1ccccc1` (stereo not drawn), the TGI (commonly the concentration at which net growth stops) with DU-145 prostate is above 100 µM; in the test on OVCAR-3 ovarian, above 100 µM; in the test with NCI-H522 lung, 50.7 µM; in the test with OVCAR-4 ovarian it was above 100 µM; in the test on SK-MEL-2 melanoma it was above 100 µM; with HS 578T breast, above 100 µM. In addition, the TGI in the test with KM12 colon, with HOP-92 NSCLC, with HCC-2998 colon, in the test on HCT-15 colon, in the test on A549 NSCLC and in the test with 786-0 renal was above 100 µM throughout. In addition, the TGI was 41.3 µM in the test on MDA-MB-435; 61.1 µM in the test with RXF 393 renal; above 100 µM in the test with M14 melanoma; 61.2 µM in the test with CCRF-CEM leukemia; above 100 µM in the test on NCI-H23 lung; 68 µM with SF-539 CNS.
Regarding `COC(=O)c1c(C(=O)OC)c(C(c2ccccc2)c2ccccc2)n(-c2ccccc2)c1Cl`, the TGI with DU-145 prostate, with OVCAR-3 ovarian, in the test with OVCAR-4 ovarian, with HS 578T breast, with EKVX NSCLC and in the test with KM12 colon was above 10 µM in each case. In addition, the TGI in the test on HOP-92 NSCLC, in the test with HCC-2998 colon, in the test with HCT-15 colon, with A549 NSCLC, with 786-0 renal and with MDA-MB-435 was above 10 µM in each case. The TGI with RXF 393 renal, with M14 melanoma, in the test with CCRF-CEM leukemia, in the test with NCI-H23 lung and in the test with SF-539 CNS was above 10 µM in each case.
As to `O=c1[nH]n(Cc2ccccc2CCl)c2ccc([N+](=O)[O-])cc12`, the TGI in the test on DU-145 prostate was above 100 µM; in the test on OVCAR-3 ovarian, above 100 µM; with NCI-H522 lung, 63.2 µM; in the test on OVCAR-4 ovarian, above 100 µM; in the test with SK-MEL-2 melanoma it was above 100 µM; in the test on HS 578T breast it was above 100 µM. The TGI in the test with EKVX NSCLC is above 100 µM; in the test on KM12 colon, above 100 µM; in the test on HOP-92 NSCLC it was above 100 µM; with HCC-2998 colon it was 42.4 µM; in the test on HCT-15 colon, above 100 µM; in the test on A549 NSCLC it was above 100 µM. Also, the TGI in the test with 786-0 renal, in the test on MDA-MB-435, in the test with RXF 393 renal, with M14 melanoma, in the test with CCRF-CEM leukemia and in the test on NCI-H23 lung was above 100 µM throughout. The compound also returned a TGI in the test with SF-539 CNS above 100 µM.
With `COc1ccc(N2C(=O)/C(=C\c3cc(OC)c(OC)c(OC)c3)S(=O)(=O)C2c2ccccc2)cc1` (stereo not drawn), the TGI in the test with DU-145 prostate is above 100 µM; in the test with OVCAR-3 ovarian it was above 100 µM; with NCI-H522 lung, above 100 µM; with OVCAR-4 ovarian it was above 100 µM; with SK-MEL-2 melanoma, 71.1 µM; in the test with HS 578T breast, above 100 µM. Besides, the TGI with KM12 colon, in the test with HOP-92 NSCLC, in the test on HCC-2998 colon, in the test on HCT-15 colon, in the test on A549 NSCLC and in the test with 786-0 renal was above 100 µM each time. Moreover, the TGI in the test on MDA-MB-435 is 72.3 µM; in the test with RXF 393 renal, above 100 µM; in the test with M14 melanoma, 84.2 µM; with CCRF-CEM leukemia, above 100 µM; in the test with NCI-H23 lung, above 100 µM; with SF-539 CNS, above 100 µM.
With `NC(=S)N/N=C(/C(=O)Nc1nc2ccc([N+](=O)[O-])cc2s1)C1C(=O)NC(=S)NC1=O`, the TGI in the test on DU-145 prostate is above 100 µM; with OVCAR-3 ovarian, above 100 µM; in the test with OVCAR-4 ovarian, above 100 µM; in the test with SK-MEL-2 melanoma, above 100 µM; in the test with HS 578T breast, 74.3 µM; with KM12 colon, above 100 µM. Besides, the TGI in the test with HOP-92 NSCLC, in the test on HCC-2998 colon, with HCT-15 colon, with A549 NSCLC, with 786-0 renal and with MDA-MB-435 was above 100 µM in each case. Also, the TGI in the test on RXF 393 renal, in the test on M14 melanoma, in the test on CCRF-CEM leukemia, with NCI-H23 lung and with SF-539 CNS was above 100 µM each time.
Regarding `Cc1cc(NCC2CC/C(=C\C=C\c3ccccc3)C2=O)no1` (stereo not drawn), the TGI with DU-145 prostate, in the test on OVCAR-3 ovarian, with NCI-H522 lung, with OVCAR-4 ovarian, in the test with HS 578T breast and in the test with EKVX NSCLC was above 100 µM in each case. Besides, the TGI with KM12 colon, with HOP-92 NSCLC, in the test on HCC-2998 colon, in the test on HCT-15 colon, with A549 NSCLC and with 786-0 renal was above 100 µM each time. Further, the TGI in the test on MDA-MB-435, in the test with RXF 393 renal, in the test with M14 melanoma, in the test on CCRF-CEM leukemia, in the test with NCI-H23 lung and in the test with SF-539 CNS was above 100 µM in each case.
For `COc1ccc(C(=O)N2CCN(c3ccc4[nH]c(=O)oc4c3)CC2)cc1`, the TGI in the test on SNB-75 CNS, with DU-145 prostate, in the test with OVCAR-3 ovarian, in the test with NCI-H522 lung, with OVCAR-4 ovarian and in the test on SK-MEL-2 melanoma was above 100 µM throughout. The TGI with HS 578T breast, in the test on EKVX NSCLC, with KM12 colon, in the test on HOP-92 NSCLC, in the test on HCC-2998 colon and in the test with HCT-15 colon was above 100 µM each time. The TGI with A549 NSCLC, in the test with 786-0 renal, with MDA-MB-435, in the test on M14 melanoma, with CCRF-CEM leukemia and in the test with NCI-H23 lung was above 100 µM throughout. The compound also yielded a concentration for total growth inhibition (TGI) with SF-539 CNS above 100 µM.
In the case of `CC1=CCC[C@]2(C)C1=CC(=O)O[C@H]2c1ccoc1`, the concentration for total growth inhibition (TGI) in the test with SNB-75 CNS, in the test on DU-145 prostate, with OVCAR-3 ovarian, in the test with NCI-H522 lung, in the test on OVCAR-4 ovarian and with SK-MEL-2 melanoma was above 100 µM throughout. The TGI with HS 578T breast, in the test on EKVX NSCLC, with KM12 colon, in the test on HOP-92 NSCLC, in the test with HCC-2998 colon and in the test with HCT-15 colon was above 100 µM in each case. Further, the TGI in the test on A549 NSCLC, in the test on 786-0 renal, in the test with MDA-MB-435, in the test on RXF 393 renal, in the test on CCRF-CEM leukemia and in the test on NCI-H23 lung was above 100 µM throughout.
As for `O=C1NC(Cc2c[nH]c3ccccc23)C(=O)N2C(c3ccccc3)c3[nH]c4ccccc4c3C[C@@H]12` (stereo partly drawn), the total growth inhibition concentration (TGI) with DU-145 prostate was above 100 µM; in the test with OVCAR-3 ovarian it was 35.7 µM; with NCI-H522 lung, 45.5 µM; in the test with OVCAR-4 ovarian it was above 100 µM; in the test with SK-MEL-2 melanoma, 46.5 µM; with HS 578T breast, 40.6 µM. The TGI with EKVX NSCLC was 65.2 µM; in the test on KM12 colon, 40 µM; with HOP-92 NSCLC it was 53.7 µM; with HCT-15 colon it was 54.3 µM; in the test with A549 NSCLC, above 100 µM; with 786-0 renal it was 39.1 µM. Moreover, the total growth inhibition concentration (TGI) turned out to be 39.7 µM with MDA-MB-435, 34.3 µM in the test with RXF 393 renal, 49.1 µM with M14 melanoma and 57.1 µM in the test on NCI-H23 lung.
For `CN1CCN(C(=S)N(C)C(=O)c2cccs2)CC1`, the TGI in the test on DU-145 prostate, in the test with OVCAR-3 ovarian, in the test on NCI-H522 lung, with OVCAR-4 ovarian, with SK-MEL-2 melanoma and with HS 578T breast was above 100 µM each time. The TGI with KM12 colon, in the test with HOP-92 NSCLC, in the test with HCC-2998 colon, in the test on HCT-15 colon, with A549 NSCLC and in the test on 786-0 renal was above 100 µM each time. Besides, the TGI with MDA-MB-435, with RXF 393 renal, in the test on M14 melanoma, in the test with CCRF-CEM leukemia and with NCI-H23 lung was above 100 µM in each case.
Regarding `NC(CCC(=O)OCc1ccccc1)C(=O)NC(CCC(=O)OCc1ccccc1)C(=O)O` (stereo not drawn) (H-Glu(OBn)-Glu(OBn)-OH; configuration not given here), the TGI in the test on SNB-75 CNS, in the test on DU-145 prostate, with OVCAR-3 ovarian, with NCI-H522 lung, in the test on OVCAR-4 ovarian and in the test on HS 578T breast was above 100 µM in each case. The TGI with EKVX NSCLC, in the test with KM12 colon, with HOP-92 NSCLC, with HCC-2998 colon, in the test with HCT-15 colon and in the test on A549 NSCLC was above 100 µM in each case. Besides, the TGI in the test with 786-0 renal, in the test with MDA-MB-435, with RXF 393 renal, in the test with M14 melanoma, in the test with CCRF-CEM leukemia and in the test with NCI-H23 lung was above 100 µM throughout.
Take `O=C(/C=C/c1ccccc1)CCC1C(=O)NC(=O)NC1=O`: the TGI in the test with SNB-75 CNS, with DU-145 prostate, in the test on OVCAR-3 ovarian, with NCI-H522 lung, in the test on OVCAR-4 ovarian and with SK-MEL-2 melanoma was above 100 µM each time. For the same compound, the TGI in the test on HS 578T breast, in the test with EKVX NSCLC, with KM12 colon, in the test with HOP-92 NSCLC, with HCC-2998 colon and in the test on HCT-15 colon was above 100 µM each time. Also, the TGI in the test on A549 NSCLC, in the test with 786-0 renal, in the test with MDA-MB-435, in the test with M14 melanoma, in the test with NCI-H23 lung and in the test with SF-539 CNS was above 100 µM each time.
